In patent US20250241902A1, “METHODS, COMPOSITIONS AND SYSTEMS FOR EVALUATION OF VISUAL FUNCTION” (BELITE BIO, INC, priority 2022, published 2025):

Legend:
Type in all cases: in vivo, human
[1] = system: adolescent STGD1 patients; experiment: Clinical study: best corrected visual acuity (BCVA) test
Source text: In some embodiments, visual acuity may be evaluated with a logarithm of the minimum angle of resolution chart (log MAR chart). A log MAR chart comprises rows of letters that are used to estimate visual acuity. Zero log MAR may indicate standard vision, positive values may indicate poor vision and negative values may indicate good vision. In some embodiments, the best corrected visual acuity (BCVA) early treatment diabetic retinopathy study (ETDRS) letters score can be calculated with the following formula: […]
(§1) The therapeutic effect of a compound of Formula (I), also known as Tinlarebant, was evaluated in a group of individuals with adolescent STGD. The treatment covered Phase 1b and Phase 2. Phase 1b included a 4-week treatment and a 14-day follow-up. Phase 2 included a 2-year treatment and 1-month follow-up. A total of 13 individuals received the treatment: 5 males and 8 females. All 13 individuals had STGD 1 aged 12-18 years old. All 13 individuals received the treatment of a compound of Formula (I), a RBP4 inhibitor.
(§2) The clinical study evaluated ocular and systemic safety and tolerability of the compound and determined the optimal dose, pharmacokinetics (PK), and […]. The study measured visual improvement by best corrected visual acuity (BCVA) test, self-reported visual questionnaire test, the change in lesion size by FAF, the change in retinal thickness and morphology by SD-OCT, the change in retinal sensitivity by microperimetry, and the change in quantitative AF. In addition, this study evaluated correlation between reduction in RBP4 and rate of lesion growth including change in autofluorescence.

[2] = system: adolescent STGD1 patients; experiment: Clinical study: ellipsoid zone (EZ) defect width by SD-OCT
Source text: In some embodiments, spectral domain-optical coherence tomography (SD-OCT) is used for evaluation of ocular disease or visual function. In some embodiments, SD-OCT provides in vivo cross-sectional and […] visualization of the retina and the RPE. In some embodiments, SD-OCT is used to detect the presence of RPE atrophy. In some embodiments, SD-OCT is used to evaluate ellipsoid zone (EZ) defect width. In some embodiments, the EZ line provides information on the integrity of the photoreceptors. In some embodiments, the EZ line provides useful information in early disease. In some embodiments, an image of SD-OCT is used to evaluate the central subfield retina thickness (CST). In some embodiments, an image of SD-OCT is used to evaluate the middle subfield retina thickness (MST). In some embodiments, an image of SD-OCT is used to evaluate the outer subfield retina thickness (OST). The therapeutic effect of a compound of Formula (I), also known as Tinlarebant, was evaluated in a group of individuals with adolescent STGD. The treatment covered Phase 1b and Phase 2. Phase 1b included a 4-week treatment and a 14-day follow-up. Phase 2 included a 2-year treatment and 1-month follow-up. A total of 13 individuals received the treatment: 5 males and 8 females. All 13 individuals had STGD 1 aged 12-18 years old. All 13 individuals received the treatment of a compound of Formula (I), a RBP4 inhibitor. The clinical study evaluated ocular and systemic safety and tolerability of the compound and determined the optimal dose, pharmacokinetics (PK), and […]. The study measured visual improvement by best corrected visual acuity (BCVA) test, self-reported visual questionnaire test, the change in lesion size by FAF, the change in retinal thickness and morphology by SD-OCT, the change in retinal sensitivity by microperimetry, and the change in quantitative AF. In addition, this study evaluated correlation between reduction in RBP4 and rate of lesion growth including change in autofluorescence.

[3] = system: adolescent STGD1 patients; experiment: Clinical study: quantitative autofluorescence (qAF)
Source text: In some embodiments, a method for measuring quantitative autofluorescence (qAF) is used or evaluation of ocular disease or visual function. In some embodiments, the qAF method may incorporate an internal fluorescent reference to account for variable laser power and detector sensitivity. In some embodiments, an intensity of AF may be calculated against the calibrated internal fluorescence reference standard in the optical pathway.
as §1, §2

[4] = subject 3, left eye, phase 2 baseline
[5] = subject 3, left eye, phase 2 month 6

CC(=O)N1CCc2c(C(=O)N3CCC(c4ccc(F)c(F)c4C(F)(F)F)CC3)n[nH]c2C1 [Tinlarebant]
patients with visual improvement in at least one eye (BCVA) ([1]; cohort of 13): 8 out of the 13 | patients with visual improvement in both eyes (BCVA) ([1]; cohort of 13): 2 patients | visual improvement, summary ([1]; cohort, approximately 7 months): Majority of the patients showed visual improvement in at least one eye | BCVA average letters of gain ([1]; left eye, cohort): 1.9±1.32 letters | BCVA average letters of loss ([1]; right eye, cohort): −2.8±1.85 letters | BCVA ETDRS letters gained ([1]; subject 4, both eyes): 3 ETDRS letters | BCVA letters ([1]; subject 4, both eyes, intermediate value in 7-month treatment period): 50 letters | BCVA letters ([1]; subject 4, both eyes, last value in 7-month treatment period): 53 letters | BCVA letters ([1]; subject 4, both eyes, start of 7-month treatment period): 45 letters | BCVA letters gained ([1]; subject 10, both eyes, approximately 7-month treatment): 9 letters | BCVA letters gained ([1]; subject 11, left eye): 6 letters | BCVA change ([1]; subject 11, right eye): no change | patients with improvement in EZ defect width (narrowing) in at least one eye ([2]; cohort): 5 patients | patients with improvement in EZ defect width in both eyes ([2]; cohort): 3 patients | EZ defect width, trend ([2]; cohort, summary): trend in reducing EZ defect width | EZ defect width average increase ([2]; left eye, cohort): 0.48±0.26 mm | EZ defect width average increase ([2]; right eye, cohort): 0.39±0.27 mm | ellipsoid zone (EZ) width change ([2]; subject 3, especially left eye, phase 2 week 1 vs week 9): decreased in both eyes | EZ defect width reduction ([2]; subject 3, left eye): 0.20 mm | EZ defect width [2, 4]: 2.91 mm | EZ defect width [2, 5]: 2.71 mm | EZ defect width reduction ([2]; subject 3, right eye): 0.13 mm | EZ defect width ([2]; subject 4, right eye, Phase 2 Baseline): 1.79 mm | EZ defect width ([2]; subject 4, right eye, Phase 2 Month 6): 1.85 mm | EZ defect width reduction ([2]; subject 6, left eye): 0.22 mm | EZ defect width reduction ([2]; subject 6, right eye): 0.27 mm | EZ width change ([2]; subject 11, both eyes, phase 2 week 1 vs week 9): stabilized | EZ defect width ([2]; subject 11, left eye, Phase 2 Baseline): 2.20 mm | EZ defect width ([2]; subject 11, left eye, Phase 2 Month 6): 2.29 mm | autofluorescence (AF) based on quantitative AF ([3]; subject 3, both eyes, especially left, phase 2 week 1 vs week 9): decrease | qDAF value [3, 4]: 351 | qDAF value [3, 5]: 268 | qDAF value ([3]; subject 3, right eye, phase 2 baseline): 335 | qDAF value ([3]; subject 3, right eye, phase 2 month 6): 275
